In publication PMC7026418, “The kinase polypharmacology landscape of clinical PARP inhibitors” (Scientific Reports, 2020) one finds percent of control binding data, which are given here for four compounds.

Targets include CDK9 (Homo sapiens, UniProt P50750); KIT(L576P) (Homo sapiens, UniProt P10721, L576P); ERBB2 (Homo sapiens, UniProt P04626); LRRK2 (Homo sapiens, UniProt Q5S007).
Test in all cases: biochemical
Common to all, as to parameters: DiscoveRx KINOMEscan active site-directed competition binding; percent of control kinase bound to immobilised ligand

The next assay has as its target T1, NIM1 (Homo sapiens, UniProt Q8IY84).
T1 construct: gene NIM1K

The next assay concerns the target T2, CDKL5 (Homo sapiens, UniProt O76039).
T2 sequence (O76039 1-960): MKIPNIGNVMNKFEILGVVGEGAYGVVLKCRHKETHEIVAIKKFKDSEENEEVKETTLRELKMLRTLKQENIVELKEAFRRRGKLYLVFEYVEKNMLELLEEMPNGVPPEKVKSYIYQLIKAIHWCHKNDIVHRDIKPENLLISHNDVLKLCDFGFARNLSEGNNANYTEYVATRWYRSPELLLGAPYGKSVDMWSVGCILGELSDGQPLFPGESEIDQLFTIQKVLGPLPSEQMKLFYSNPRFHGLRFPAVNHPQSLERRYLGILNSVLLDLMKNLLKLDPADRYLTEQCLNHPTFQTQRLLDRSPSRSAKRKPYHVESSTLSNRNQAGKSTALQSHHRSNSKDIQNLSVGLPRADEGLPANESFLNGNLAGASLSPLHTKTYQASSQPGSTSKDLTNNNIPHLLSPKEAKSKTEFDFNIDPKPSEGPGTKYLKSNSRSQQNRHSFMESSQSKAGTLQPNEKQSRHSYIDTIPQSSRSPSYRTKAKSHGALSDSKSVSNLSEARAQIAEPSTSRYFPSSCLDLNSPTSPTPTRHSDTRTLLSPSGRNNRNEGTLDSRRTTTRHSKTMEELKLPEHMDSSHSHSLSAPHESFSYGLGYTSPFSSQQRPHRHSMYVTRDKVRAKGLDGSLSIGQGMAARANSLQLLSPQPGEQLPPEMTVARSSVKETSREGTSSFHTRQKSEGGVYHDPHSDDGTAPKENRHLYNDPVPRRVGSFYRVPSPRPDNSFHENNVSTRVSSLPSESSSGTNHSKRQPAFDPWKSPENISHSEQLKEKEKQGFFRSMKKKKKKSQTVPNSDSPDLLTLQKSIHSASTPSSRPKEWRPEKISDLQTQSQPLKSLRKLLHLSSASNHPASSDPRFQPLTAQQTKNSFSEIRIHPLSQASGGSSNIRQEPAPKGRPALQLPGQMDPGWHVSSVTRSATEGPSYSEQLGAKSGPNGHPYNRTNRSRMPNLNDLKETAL

A further assay deals with T3, CDC2L5 (Homo sapiens, UniProt Q14004).
T3 construct: gene CDK13

Another assay deals with T4, MST3 (Homo sapiens, UniProt Q9Y6E0).
T4 construct: gene STK24

For the next assay, the target named is T5, ERK2 (Homo sapiens, UniProt P28482).
T5 construct: gene MAPK1
T5 sequence (P28482 whole entry): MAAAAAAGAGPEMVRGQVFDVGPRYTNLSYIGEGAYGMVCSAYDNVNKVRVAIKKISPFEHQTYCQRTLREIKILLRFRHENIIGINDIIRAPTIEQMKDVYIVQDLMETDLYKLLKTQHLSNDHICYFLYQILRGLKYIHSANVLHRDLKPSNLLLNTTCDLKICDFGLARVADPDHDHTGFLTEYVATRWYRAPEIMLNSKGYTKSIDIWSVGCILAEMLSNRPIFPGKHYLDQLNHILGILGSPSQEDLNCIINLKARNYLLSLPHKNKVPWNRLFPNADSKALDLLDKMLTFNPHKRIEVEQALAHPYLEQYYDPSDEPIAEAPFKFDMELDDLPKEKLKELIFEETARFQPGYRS

A further assay has as its target T6, CDK4-cyclinD1 (Homo sapiens, UniProt P11802).
T6 construct: cyclinD1

A further assay has as its target T7, SNRK (Homo sapiens, UniProt Q9NRH2).
T7 sequence (Q9NRH2 1-765): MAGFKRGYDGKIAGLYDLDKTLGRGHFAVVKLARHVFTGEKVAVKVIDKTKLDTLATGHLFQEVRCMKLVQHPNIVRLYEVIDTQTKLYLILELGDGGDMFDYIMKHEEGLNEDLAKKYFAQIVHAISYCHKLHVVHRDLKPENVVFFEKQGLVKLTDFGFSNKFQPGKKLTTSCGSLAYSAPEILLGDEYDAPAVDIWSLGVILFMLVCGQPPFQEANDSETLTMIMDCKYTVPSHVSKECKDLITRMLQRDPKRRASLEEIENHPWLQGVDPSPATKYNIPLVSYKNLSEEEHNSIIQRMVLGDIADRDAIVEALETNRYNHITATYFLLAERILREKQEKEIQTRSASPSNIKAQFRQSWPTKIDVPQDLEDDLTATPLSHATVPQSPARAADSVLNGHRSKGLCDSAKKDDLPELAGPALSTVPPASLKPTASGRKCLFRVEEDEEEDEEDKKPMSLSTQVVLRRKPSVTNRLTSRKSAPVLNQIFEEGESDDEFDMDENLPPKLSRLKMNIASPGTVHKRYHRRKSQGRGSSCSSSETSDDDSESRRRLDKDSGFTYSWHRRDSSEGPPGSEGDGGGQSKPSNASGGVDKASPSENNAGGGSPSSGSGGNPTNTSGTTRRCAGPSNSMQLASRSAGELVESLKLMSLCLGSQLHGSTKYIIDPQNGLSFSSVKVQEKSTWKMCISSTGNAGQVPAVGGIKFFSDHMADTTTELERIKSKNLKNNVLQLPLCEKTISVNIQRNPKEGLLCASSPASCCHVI

Where [1] appears, read: read-out: Rucaparib / %Ctrl @ 10000nM, binding competition, % of control.
[2] abbreviates: read-out: Talazoparib (BMN 673) / %Ctrl @ 10000nM.
Setting [3] is: read-out: Niraparib (MK-4827) / %Ctrl @ 10000nM.
Setting [4] is: read-out: Olaparib / %Ctrl @ 10000nM.

Where two headings read alike, the source gives them in different places.

T6 sequence (P11802 whole entry): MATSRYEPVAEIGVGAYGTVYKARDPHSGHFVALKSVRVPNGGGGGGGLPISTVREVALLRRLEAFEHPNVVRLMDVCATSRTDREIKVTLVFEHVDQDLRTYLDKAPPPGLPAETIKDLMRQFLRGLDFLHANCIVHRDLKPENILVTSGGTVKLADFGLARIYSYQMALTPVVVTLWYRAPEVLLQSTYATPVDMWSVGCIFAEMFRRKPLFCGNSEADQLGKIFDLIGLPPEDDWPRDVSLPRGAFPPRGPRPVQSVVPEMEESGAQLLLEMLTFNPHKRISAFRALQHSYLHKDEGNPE
T6 sequence (P24385 whole entry partner): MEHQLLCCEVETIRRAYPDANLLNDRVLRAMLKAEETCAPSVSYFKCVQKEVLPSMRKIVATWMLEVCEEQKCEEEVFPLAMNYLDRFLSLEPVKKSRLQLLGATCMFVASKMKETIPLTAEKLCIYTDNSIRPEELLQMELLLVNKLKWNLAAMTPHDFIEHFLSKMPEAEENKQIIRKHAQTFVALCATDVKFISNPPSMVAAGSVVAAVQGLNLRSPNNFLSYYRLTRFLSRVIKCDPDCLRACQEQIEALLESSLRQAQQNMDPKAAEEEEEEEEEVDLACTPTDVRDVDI
Chain of CDK9 (P50750 whole entry): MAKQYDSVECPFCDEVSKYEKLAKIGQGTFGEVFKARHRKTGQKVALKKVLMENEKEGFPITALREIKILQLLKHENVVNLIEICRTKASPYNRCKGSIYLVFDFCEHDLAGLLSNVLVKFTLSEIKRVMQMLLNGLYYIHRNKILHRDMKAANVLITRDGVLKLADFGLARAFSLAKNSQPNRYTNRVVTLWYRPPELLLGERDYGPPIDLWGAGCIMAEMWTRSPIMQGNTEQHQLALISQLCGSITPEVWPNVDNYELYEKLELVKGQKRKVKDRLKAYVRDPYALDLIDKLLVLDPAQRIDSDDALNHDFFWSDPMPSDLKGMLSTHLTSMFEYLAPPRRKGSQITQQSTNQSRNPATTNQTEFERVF
Chain of KIT(L576P) (P10721 whole entry L576P): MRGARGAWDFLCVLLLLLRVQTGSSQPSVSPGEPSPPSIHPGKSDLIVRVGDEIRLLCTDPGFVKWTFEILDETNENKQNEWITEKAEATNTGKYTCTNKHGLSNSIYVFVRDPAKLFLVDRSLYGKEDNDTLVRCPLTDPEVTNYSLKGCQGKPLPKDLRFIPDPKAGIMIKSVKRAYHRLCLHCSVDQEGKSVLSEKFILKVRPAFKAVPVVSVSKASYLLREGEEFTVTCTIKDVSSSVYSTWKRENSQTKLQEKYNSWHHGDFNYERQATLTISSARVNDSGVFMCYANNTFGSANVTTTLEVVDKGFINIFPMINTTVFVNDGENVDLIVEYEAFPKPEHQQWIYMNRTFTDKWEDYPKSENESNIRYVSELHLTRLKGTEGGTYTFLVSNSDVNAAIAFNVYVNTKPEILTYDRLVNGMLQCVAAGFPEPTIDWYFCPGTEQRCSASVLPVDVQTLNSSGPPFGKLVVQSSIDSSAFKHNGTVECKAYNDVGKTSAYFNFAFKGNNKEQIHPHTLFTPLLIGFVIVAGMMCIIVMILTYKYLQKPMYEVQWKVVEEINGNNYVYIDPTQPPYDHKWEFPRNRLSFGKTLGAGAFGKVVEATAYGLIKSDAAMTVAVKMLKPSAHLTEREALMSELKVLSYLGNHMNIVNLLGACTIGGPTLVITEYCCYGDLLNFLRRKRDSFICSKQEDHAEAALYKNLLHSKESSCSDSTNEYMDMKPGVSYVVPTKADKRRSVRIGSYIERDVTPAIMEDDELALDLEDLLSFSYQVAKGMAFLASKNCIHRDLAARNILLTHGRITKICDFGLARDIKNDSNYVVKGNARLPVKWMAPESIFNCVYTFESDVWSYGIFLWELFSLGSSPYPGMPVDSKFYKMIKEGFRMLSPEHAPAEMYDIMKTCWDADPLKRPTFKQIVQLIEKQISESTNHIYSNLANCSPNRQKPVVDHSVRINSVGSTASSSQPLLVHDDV
Chain of LRRK2 (Q5S007 whole entry): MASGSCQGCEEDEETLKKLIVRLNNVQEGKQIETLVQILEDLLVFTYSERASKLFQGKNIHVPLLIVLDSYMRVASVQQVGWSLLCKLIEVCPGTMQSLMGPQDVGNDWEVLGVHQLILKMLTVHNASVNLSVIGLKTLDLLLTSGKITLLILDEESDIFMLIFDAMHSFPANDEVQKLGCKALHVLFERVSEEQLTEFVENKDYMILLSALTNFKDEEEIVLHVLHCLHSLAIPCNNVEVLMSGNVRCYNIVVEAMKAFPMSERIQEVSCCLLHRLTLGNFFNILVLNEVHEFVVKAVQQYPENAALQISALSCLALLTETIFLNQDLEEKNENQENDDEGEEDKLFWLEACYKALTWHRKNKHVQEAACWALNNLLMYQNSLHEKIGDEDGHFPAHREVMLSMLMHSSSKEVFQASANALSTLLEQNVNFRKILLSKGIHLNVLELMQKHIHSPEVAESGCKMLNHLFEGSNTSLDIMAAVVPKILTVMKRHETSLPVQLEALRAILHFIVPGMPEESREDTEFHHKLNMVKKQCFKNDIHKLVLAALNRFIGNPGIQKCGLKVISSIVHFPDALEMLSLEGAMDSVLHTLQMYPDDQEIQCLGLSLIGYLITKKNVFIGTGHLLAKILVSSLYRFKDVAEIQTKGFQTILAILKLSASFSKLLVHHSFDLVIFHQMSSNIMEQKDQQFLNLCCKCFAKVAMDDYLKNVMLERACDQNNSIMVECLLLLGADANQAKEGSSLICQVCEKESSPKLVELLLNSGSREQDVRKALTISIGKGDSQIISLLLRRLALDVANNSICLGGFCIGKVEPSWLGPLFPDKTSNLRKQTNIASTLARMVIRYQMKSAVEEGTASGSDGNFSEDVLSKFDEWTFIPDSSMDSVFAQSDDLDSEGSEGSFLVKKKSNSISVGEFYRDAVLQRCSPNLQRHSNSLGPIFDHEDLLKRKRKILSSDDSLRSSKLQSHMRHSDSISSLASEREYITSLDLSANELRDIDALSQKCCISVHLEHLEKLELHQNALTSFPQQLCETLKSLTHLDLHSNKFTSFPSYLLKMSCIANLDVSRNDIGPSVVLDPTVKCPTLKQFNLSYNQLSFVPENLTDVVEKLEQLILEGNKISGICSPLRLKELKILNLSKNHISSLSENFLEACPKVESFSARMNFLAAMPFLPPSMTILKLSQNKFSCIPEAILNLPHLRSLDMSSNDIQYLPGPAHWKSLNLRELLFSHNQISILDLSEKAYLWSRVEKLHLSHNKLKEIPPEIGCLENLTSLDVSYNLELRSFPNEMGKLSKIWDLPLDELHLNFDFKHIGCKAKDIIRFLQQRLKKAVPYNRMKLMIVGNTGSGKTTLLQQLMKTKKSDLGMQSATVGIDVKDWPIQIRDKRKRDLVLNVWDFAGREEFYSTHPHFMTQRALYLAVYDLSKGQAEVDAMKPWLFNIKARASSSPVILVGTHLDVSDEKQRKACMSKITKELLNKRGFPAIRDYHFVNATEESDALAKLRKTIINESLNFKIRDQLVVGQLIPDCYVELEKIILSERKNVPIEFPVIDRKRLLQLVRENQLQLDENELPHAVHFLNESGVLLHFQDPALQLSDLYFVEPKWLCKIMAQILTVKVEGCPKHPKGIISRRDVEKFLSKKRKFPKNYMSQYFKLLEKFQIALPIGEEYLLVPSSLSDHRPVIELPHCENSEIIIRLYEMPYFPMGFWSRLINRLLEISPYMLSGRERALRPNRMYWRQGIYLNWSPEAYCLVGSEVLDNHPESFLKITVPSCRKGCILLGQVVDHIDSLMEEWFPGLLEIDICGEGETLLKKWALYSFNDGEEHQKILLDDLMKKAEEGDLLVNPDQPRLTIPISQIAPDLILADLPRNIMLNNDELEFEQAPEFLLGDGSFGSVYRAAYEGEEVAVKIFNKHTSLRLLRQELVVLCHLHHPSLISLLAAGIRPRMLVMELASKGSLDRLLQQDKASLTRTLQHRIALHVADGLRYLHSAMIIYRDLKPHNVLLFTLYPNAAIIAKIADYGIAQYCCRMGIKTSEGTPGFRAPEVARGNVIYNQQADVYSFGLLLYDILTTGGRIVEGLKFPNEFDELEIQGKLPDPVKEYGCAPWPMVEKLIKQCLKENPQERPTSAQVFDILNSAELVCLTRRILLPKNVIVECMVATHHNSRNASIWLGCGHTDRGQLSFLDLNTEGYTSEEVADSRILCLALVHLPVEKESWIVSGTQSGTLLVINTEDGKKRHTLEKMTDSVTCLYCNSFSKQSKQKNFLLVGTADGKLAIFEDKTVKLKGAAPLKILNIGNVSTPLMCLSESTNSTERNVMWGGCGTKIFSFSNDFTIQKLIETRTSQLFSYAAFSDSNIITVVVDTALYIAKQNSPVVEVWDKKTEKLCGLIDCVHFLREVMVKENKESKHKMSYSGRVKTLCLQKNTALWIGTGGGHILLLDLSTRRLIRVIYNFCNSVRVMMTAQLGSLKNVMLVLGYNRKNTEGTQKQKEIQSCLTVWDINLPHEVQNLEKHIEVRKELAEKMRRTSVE

With `CNCc1ccc(-c2[nH]c3cc(F)cc4c3c2CCNC4=O)cc1` [Rucaparib], the percent of control binding at 10 µM stood at 71% on NIM1 (setting [1]); 78% at CDK9 (setting [1]); 88% on KIT(L576P) (setting [1]); 100% at ERBB2 (setting [1]); 30% at CDKL5 (setting [1]); 98% at CDC2L5 (setting [1]). Further, the percent of control binding at 10 µM on MST3 (setting [1]) is 89%; at ERK2 (setting [1]) it was 94%; at LRRK2 (setting [1]), 78%; at CDK4-cyclinD1 (setting [1]), 25%; at SNRK (setting [1]), 80%.
Consider `Cn1ncnc1[C@H]1c2n[nH]c(=O)c3cc(F)cc(c23)N[C@@H]1c1ccc(F)cc1` [Talazoparib], for which the percent of control binding at 10 µM at NIM1 (setting [2]) amounted to 79%; on CDK9 (setting [2]) it was 100%; at KIT(L576P) (setting [2]), 100%; at ERBB2 (setting [2]), 98%; on CDKL5 (setting [2]), 100%; on CDC2L5 (setting [2]) it was 100%. Besides, the percent of control binding at 10 µM came to 99% on MST3 (setting [2]); 100% on ERK2 (setting [2]); 100% at LRRK2 (setting [2]); 70% on CDK4-cyclinD1 (setting [2]); 100% on SNRK (setting [2]).
As to `NC(=O)c1cccc2cn(-c3ccc([C@@H]4CCCNC4)cc3)nc12` [Niraparib], the percent of control binding at 10 µM is 100% on NIM1 (setting [3]); 100% at CDK9 (setting [3]); 80% at KIT(L576P) (setting [3]); 82% at ERBB2 (setting [3]); 86% on CDKL5 (setting [3]); 100% on CDC2L5 (setting [3]). The percent of control binding at 10 µM at MST3 (setting [3]) was determined as 74%; at ERK2 (setting [3]) it was 93%; at LRRK2 (setting [3]), 96%; at CDK4-cyclinD1 (setting [3]), 82%; at SNRK (setting [3]) it was 100%.
Consider `O=C(c1cc(Cc2n[nH]c(=O)c3ccccc23)ccc1F)N1CCN(C(=O)C2CC2)CC1` [Olaparib], for which the percent of control binding at 10 µM at NIM1 (setting [4]) came to 83%; on CDK9 (setting [4]), 100%; at KIT(L576P) (setting [4]), 100%; at ERBB2 (setting [4]) it was 100%; at CDKL5 (setting [4]), 98%; on CDC2L5 (setting [4]) it was 99%. Further, the percent of control binding at 10 µM on MST3 (setting [4]) amounted to 99%; on ERK2 (setting [4]) it was 93%; at LRRK2 (setting [4]), 100%; at CDK4-cyclinD1 (setting [4]) it was 80%; on SNRK (setting [4]), 96%.
